{"source": "paper PMC6457931", "about": "(Science Advances, 2019)", "key": {"229E S protein": {"target": "229E S protein (Human coronavirus 229E, UniProt P15423)", "sequence (P15423 16-1173 limits assumed)": "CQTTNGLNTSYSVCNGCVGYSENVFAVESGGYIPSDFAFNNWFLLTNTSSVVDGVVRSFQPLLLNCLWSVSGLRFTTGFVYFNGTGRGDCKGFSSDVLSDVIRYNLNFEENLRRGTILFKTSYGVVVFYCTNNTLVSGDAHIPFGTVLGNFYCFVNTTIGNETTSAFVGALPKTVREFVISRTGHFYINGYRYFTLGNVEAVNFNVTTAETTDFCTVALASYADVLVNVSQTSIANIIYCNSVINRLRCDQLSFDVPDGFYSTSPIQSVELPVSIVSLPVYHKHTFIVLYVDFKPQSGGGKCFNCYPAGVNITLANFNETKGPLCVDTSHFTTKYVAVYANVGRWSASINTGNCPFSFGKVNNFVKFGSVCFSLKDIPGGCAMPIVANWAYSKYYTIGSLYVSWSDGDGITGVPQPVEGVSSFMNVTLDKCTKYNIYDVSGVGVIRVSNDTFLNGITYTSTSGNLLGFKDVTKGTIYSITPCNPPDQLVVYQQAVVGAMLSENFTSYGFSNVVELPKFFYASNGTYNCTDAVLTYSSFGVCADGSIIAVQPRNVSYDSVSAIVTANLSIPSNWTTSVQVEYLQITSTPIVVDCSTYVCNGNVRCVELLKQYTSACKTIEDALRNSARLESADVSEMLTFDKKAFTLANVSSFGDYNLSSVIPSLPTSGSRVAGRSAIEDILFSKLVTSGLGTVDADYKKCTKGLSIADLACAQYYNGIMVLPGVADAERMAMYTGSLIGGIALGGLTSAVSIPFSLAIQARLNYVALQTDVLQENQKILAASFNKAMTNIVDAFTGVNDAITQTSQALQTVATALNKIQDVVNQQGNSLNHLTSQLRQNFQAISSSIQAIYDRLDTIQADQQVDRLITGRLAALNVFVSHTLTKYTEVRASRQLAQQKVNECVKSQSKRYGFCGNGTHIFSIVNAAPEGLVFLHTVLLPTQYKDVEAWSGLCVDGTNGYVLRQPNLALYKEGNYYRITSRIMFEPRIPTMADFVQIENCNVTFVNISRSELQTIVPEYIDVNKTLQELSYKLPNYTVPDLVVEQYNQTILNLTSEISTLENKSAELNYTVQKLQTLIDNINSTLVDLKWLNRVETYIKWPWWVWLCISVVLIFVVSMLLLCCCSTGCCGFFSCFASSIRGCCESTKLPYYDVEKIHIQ", "experiment": "cell-based", "design": "species or system HCoV-229E"}, "NL63 S protein": {"target": "NL63 S protein (Human coronavirus NL63, UniProt Q6Q1S2)", "sequence (Q6Q1S2 19-1338 limits assumed)": "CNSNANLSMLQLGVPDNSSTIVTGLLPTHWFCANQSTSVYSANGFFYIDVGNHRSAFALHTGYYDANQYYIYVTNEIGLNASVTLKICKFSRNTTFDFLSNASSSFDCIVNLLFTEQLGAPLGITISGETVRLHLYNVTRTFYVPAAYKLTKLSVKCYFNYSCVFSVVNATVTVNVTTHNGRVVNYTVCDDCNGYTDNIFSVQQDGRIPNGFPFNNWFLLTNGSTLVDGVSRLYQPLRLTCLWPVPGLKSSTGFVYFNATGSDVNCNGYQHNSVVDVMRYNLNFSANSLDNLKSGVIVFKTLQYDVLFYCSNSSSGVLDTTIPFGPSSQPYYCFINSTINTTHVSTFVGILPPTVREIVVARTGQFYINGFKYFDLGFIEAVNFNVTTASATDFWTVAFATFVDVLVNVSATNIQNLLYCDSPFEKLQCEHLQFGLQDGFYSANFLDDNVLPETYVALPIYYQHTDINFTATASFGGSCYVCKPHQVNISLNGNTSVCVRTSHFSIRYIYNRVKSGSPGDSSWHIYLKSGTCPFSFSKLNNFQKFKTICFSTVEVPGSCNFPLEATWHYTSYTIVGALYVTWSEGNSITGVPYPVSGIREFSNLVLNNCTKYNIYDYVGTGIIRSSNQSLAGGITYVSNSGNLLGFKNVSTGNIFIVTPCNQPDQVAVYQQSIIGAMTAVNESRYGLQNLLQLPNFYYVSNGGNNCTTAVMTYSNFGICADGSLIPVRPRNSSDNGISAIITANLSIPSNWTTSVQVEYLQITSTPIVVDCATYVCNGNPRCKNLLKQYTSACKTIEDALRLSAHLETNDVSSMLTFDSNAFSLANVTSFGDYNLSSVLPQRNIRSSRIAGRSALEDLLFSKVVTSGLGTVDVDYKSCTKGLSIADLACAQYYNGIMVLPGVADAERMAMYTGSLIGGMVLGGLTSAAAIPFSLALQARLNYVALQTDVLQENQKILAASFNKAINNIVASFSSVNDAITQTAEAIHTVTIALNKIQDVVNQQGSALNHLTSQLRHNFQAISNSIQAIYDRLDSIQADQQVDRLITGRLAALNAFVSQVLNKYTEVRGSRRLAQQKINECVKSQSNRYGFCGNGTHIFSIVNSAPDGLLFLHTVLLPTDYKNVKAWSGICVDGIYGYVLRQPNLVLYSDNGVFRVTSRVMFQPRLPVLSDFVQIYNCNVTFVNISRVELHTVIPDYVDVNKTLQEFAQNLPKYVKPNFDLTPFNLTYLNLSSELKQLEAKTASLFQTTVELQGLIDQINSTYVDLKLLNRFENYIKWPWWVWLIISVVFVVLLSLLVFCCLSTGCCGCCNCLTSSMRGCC", "experiment": "cell-based", "design": "species or system HCoV-NL63"}, "[1]": {"system": "S proteins of multiple HCoVs", "format": "cell-based"}, "pseudotyped 229E": {"system": "pseudotyped 229E", "conditions": "48 h"}, "pseudotyped NL63": {"system": "pseudotyped NL63", "conditions": "48 h"}, "pseudotyped OC43": {"system": "pseudotyped OC43", "conditions": "48 h"}, "OC43": {"system": "OC43", "conditions": "read-out: IC50, live OC43 infection; HCT-8 cells, 100 TCID50, day 5"}, "NL63": {"system": "NL63", "conditions": "read-out: IC50, live NL63 infection; LLC-MK2 cells"}, "OC43 S protein": {"target": "OC43 S protein (Human coronavirus OC43, UniProt P36334)", "sequence (P36334 14-1336 limits assumed)": "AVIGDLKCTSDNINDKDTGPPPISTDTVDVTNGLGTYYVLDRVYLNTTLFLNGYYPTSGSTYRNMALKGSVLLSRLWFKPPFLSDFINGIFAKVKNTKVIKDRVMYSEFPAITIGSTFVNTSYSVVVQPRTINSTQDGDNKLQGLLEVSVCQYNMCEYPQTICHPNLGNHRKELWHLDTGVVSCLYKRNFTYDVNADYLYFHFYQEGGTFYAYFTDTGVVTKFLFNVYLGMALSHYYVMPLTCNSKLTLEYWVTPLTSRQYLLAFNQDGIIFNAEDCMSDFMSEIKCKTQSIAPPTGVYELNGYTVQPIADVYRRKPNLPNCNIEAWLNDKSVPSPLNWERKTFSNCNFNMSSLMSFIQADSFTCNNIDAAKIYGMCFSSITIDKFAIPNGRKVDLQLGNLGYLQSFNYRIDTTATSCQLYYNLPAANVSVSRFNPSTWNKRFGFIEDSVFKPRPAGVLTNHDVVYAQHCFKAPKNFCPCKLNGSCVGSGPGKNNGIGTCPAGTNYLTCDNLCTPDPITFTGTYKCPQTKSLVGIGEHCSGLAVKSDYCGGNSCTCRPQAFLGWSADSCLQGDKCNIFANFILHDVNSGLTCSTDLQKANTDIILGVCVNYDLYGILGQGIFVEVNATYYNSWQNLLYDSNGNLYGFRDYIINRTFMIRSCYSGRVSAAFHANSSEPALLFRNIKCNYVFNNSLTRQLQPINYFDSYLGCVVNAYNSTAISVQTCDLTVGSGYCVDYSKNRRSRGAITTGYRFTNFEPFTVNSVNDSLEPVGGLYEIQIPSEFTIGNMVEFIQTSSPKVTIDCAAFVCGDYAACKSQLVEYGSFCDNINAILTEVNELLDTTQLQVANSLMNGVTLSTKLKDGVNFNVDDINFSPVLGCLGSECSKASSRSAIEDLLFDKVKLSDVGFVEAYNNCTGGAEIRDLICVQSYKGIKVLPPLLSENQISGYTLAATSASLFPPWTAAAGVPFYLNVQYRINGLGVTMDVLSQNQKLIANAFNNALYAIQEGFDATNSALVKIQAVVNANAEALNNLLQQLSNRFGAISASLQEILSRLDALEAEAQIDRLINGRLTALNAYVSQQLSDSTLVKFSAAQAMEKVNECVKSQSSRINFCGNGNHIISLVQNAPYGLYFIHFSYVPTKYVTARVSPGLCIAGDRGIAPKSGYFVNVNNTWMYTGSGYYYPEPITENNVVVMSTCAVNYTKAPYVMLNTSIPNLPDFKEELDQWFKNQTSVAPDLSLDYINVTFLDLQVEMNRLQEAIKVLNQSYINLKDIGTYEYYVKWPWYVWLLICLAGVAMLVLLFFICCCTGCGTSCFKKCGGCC", "experiment": "cell-based", "conditions": "Inhibitory activity of peptides, IC50, HCoV-OC43 cell-cell fusion assay"}, "[2]": {"target": "HR1 domain of HCoV-229E S protein (residues 785 to 873) (HCoV-229E) (UniProt P15423)", "sequence (P15423 785-873)": "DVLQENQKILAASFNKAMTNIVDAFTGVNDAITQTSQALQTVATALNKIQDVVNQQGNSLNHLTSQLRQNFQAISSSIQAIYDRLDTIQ"}, "[3]": {"target": "HR1 domain of MERS-CoV S protein (residues 984 to 1062) (MERS-CoV) (UniProt K9N5Q8)", "sequence (K9N5Q8 984-1062)": "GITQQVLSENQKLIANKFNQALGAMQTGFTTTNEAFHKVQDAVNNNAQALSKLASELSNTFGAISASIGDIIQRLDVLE"}, "[4]": {"target": "HR1 domain of SARS-CoV S protein (residues 892 to 970) (SARS-CoV) (UniProt P59594)"}, "[5]": {"conditions": "high or low dose, before and 1, 3, 5 days after final treatment, P > 0.05"}}}
{"molecule": "CC[C@H](C)[C@H](NC(=O)[C@H](C)NC(=O)[C@H](CC(=O)O)NC(=O)[C@H](CC(N)=O)NC(=O)[C@@H](NC(=O)CNC(=O)[C@@H](NC(=O)[C@H](Cc1ccccc1)NC(=O)[C@H](C)NC(=O)[C@H](CC(=O)O)NC(=O)[C@@H](NC(=O)[C@@H](NC(=O)[C@H](CC(N)=O)NC(=O)[C@@H](NC(=O)[C@H](CCSC)NC(=O)[C@H](C)NC(=O)[C@H](CCCCN)NC(=O)[C@H](CC(N)=O)NC(=O)[C@H](Cc1ccccc1)NC(=O)[C@H](CO)NC(=O)[C@H](C)NC(=O)[C@H](C)N)[C@@H](C)O)[C@@H](C)CC)C(C)C)[C@@H](C)O)C(C)C)C(=O)N[C@H](C(=O)N[C@@H](CCC(N)=O)C(=O)N[C@H](C(=O)N[C@@H](CO)C(=O)N[C@@H](CCC(N)=O)C(=O)N[C@@H](C)C(=O)N[C@@H](CC(C)C)C(=O)N[C@@H](CCC(N)=O)C(=O)N[C@H](C(=O)N[C@H](C(=O)N[C@@H](C)C(=O)N[C@H](C(=O)N[C@@H](C)C(=O)N[C@@H](CC(C)C)C(=O)N[C@@H](CC(N)=O)C(=O)N[C@@H](CCCCN)C(=O)N[C@H](C(=O)N[C@@H](CCC(N)=O)C(=O)N[C@@H](CC(=O)O)C(=O)N[C@H](C(=O)N[C@H](C(=O)N[C@@H](CC(N)=O)C(=O)N[C@@H](CCC(N)=O)C(=O)N[C@@H](CCC(N)=O)C(=O)NCC(=O)N[C@@H](CC(N)=O)C(=O)N[C@@H](CO)C(=O)N[C@@H](CC(C)C)C(=O)N[C@@H](CC(N)=O)C(=O)N[C@@H](Cc1c[nH]cn1)C(=O)N[C@@H](CC(C)C)C(=O)N[C@H](C(=O)N[C@@H](CO)C(=O)N[C@@H](CCC(N)=O)C(=O)O)[C@@H](C)O)C(C)C)C(C)C)[C@@H](C)CC)[C@@H](C)O)C(C)C)[C@@H](C)O)[C@@H](C)O)[C@@H](C)O", "note": "[229E-HR1P]", "values": [{"measurement": "Inhibitory effects on 229E-S-mediated cell-cell fusion", "setting": "229E S protein", "value": "moderate inhibitory effects"}, {"measurement": "Inhibitory effects on NL63-S-mediated cell-cell fusion", "setting": "NL63 S protein", "value": "moderate inhibitory effects"}]}
{"molecule": "CC[C@H](C)[C@H](NC(=O)[C@H](CC(N)=O)NC(=O)[C@H](CC(=O)O)NC(=O)[C@@H](NC(=O)[C@H](CC(C)C)NC(=O)[C@@H](NC(=O)[C@H](CCC(N)=O)NC(=O)[C@H](CC(C)C)NC(=O)[C@H](CCCCN)NC(=O)[C@H](CCC(N)=O)NC(=O)[C@@H](NC(=O)[C@@H](NC(=O)[C@H](Cc1ccc(O)cc1)NC(=O)[C@H](CC(N)=O)NC(=O)[C@H](CC(C)C)NC(=O)[C@H](CCC(=O)O)NC(=O)[C@H](C)NC(=O)[C@H](CO)NC(=O)[C@H](CCCCN)NC(=O)[C@H](CC(N)=O)NC(=O)[C@H](CCC(=O)O)NC(=O)[C@H](CC(C)C)NC(=O)[C@@H](NC(=O)[C@H](CO)NC(=O)[C@@H](NC(=O)[C@H](CCC(=O)O)NC(=O)[C@H](CO)NC(=O)[C@@H](NC(=O)[C@H](CC(C)C)NC(=O)[C@H](CC(N)=O)NC(=O)[C@H](CC(C)C)NC(=O)[C@@H](NC(=O)[C@@H](NC(=O)[C@H](CCC(N)=O)NC(=O)[C@H](CC(N)=O)NC(=O)[C@H](Cc1ccc(O)cc1)NC(=O)[C@H](CCC(N)=O)NC(=O)[C@H](CCC(=O)O)NC(=O)[C@@H](NC(=O)[C@@H](N)C(C)C)C(C)C)[C@@H](C)O)[C@@H](C)CC)[C@@H](C)O)[C@@H](C)CC)[C@@H](C)O)[C@@H](C)O)C(C)C)[C@@H](C)O)[C@@H](C)CC)C(=O)N[C@@H](CC(N)=O)C(=O)N[C@@H](CO)C(=O)N[C@H](C(=O)N[C@@H](CC(C)C)C(=O)N[C@H](C(=O)N[C@@H](CC(=O)O)C(=O)N[C@@H](CC(C)C)C(=O)N[C@@H](CCCCN)C(=O)N[C@@H](Cc1c[nH]c2ccccc12)C(=O)N[C@@H](CC(C)C)C(=O)O)C(C)C)[C@@H](C)O", "note": "[229E-HR2P]", "values": [{"measurement": "Inhibitory activity against β-HCoVs (MERS-CoV, SARS-CoV, OC43) S-mediated fusion", "setting": "[1]", "value": "no effective inhibitory activity"}, {"measurement": "IC50", "setting": "229E", "value": 0.56, "unit": "µM"}]}
{"molecule": "CC[C@H](C)[C@H](NC(=O)[C@H](C)NC(=O)[C@H](CCC(=O)O)NC(=O)[C@H](CCC(=O)O)NC(=O)[C@H](CC(C)C)NC(=O)[C@H](CCCCN)NC(=O)[C@H](CCCCN)NC(=O)[C@H](CCSC)NC(=O)[C@H](CCC(=O)O)NC(=O)[C@H](Cc1ccc(O)cc1)NC(=O)[C@H](CCC(=O)O)NC(=O)[C@H](CC(C)C)NC(=O)[C@H](CC(=O)O)NC(=O)[C@H](CC(C)C)NC(=O)[C@H](Cc1ccccc1)NC(=O)[C@@H](NC(=O)[C@@H](NC(=O)[C@H](CC(N)=O)NC(=O)[C@@H](NC(=O)[C@H](CCC(N)=O)NC(=O)[C@H](CC(=O)O)NC(=O)[C@H](CC(C)C)NC(=O)[C@@H](N)CO)[C@@H](C)CC)C(C)C)[C@@H](C)O)C(=O)N[C@@H](CCCCN)C(=O)N[C@@H](CCCCN)C(=O)N[C@@H](CC(C)C)C(=O)N[C@@H](CCC(=O)O)C(=O)N[C@@H](CCC(=O)O)C(=O)N[C@@H](CO)C(=O)N[C@@H](Cc1ccc(O)cc1)C(=O)N[C@H](C(=O)N[C@@H](CC(=O)O)C(=O)N[C@@H](CC(C)C)C(=O)N[C@@H](CCCCN)C(=O)N[C@@H](CCC(=O)O)C(=O)N[C@@H](CC(C)C)C(=O)O)[C@@H](C)CC", "note": "[EK1]", "values": [{"measurement": "IC50", "setting": "pseudotyped 229E", "value": 3.35, "unit": "µM"}, {"measurement": "IC50", "setting": "pseudotyped NL63", "value": 6.02, "unit": "µM"}, {"measurement": "IC50", "setting": "pseudotyped OC43", "value": 1.81, "unit": "µM"}, {"measurement": "IC50", "setting": "OC43", "value": 0.62, "unit": "µM"}, {"measurement": "IC50", "setting": "229E", "value": 0.69, "unit": "µM"}, {"measurement": "IC50", "setting": "NL63", "value": 0.48, "unit": "µM"}, {"measurement": "EK1-specific antibodies in sera (ELISA)", "setting": "2 weeks after intranasal administration", "value": "No EK1-specific antibodies were detected"}, {"measurement": "weight gain/loss compared to PBS-treated mice", "setting": "20 or 100 mg/kg intranasal every day for 1 week, followed 2 weeks", "value": "no apparent difference"}, {"measurement": "histopathology of lung, liver, kidney, and spleen sections", "setting": "hematoxylin and eosin, 4 weeks after administration", "value": "no pathological abnormality"}, {"measurement": "alanine aminotransferase (ALT) in sera versus PBS-treated group", "setting": "[5]", "value": "no significant difference"}, {"measurement": "creatinine in sera versus PBS-treated group", "setting": "[5]", "value": "no significant difference"}]}
{"molecule": "CC[C@H](C)[C@H](NC(=O)[C@H](CC(C)C)NC(=O)CNC(=O)[C@H](CCC(N)=O)NC(=O)[C@H](CC(C)C)NC(=O)[C@H](CCC(=O)O)NC(=O)[C@@H](NC(=O)[C@@H](NC(=O)[C@@H](NC(=O)[C@H](CCC(N)=O)NC(=O)[C@H](Cc1ccccc1)NC(=O)[C@H](CC(C)C)NC(=O)[C@H](CO)NC(=O)[C@H](C)NC(=O)[C@@H](NC(=O)[C@H](CCCCN)NC(=O)[C@H](C)NC(=O)[C@H](CCC(=O)O)NC(=O)[C@H](CC(C)C)NC(=O)[C@H](CCC(N)=O)NC(=O)[C@H](CCCCN)NC(=O)[C@H](CC(C)C)NC(=O)[C@H](CCC(=O)O)NC(=O)[C@H](CO)NC(=O)[C@H](CO)NC(=O)[C@H](CC(C)C)NC(=O)[C@H](CC(N)=O)NC(=O)[C@H](CC(C)C)NC(=O)[C@H](Cc1ccc(O)cc1)NC(=O)[C@@H](NC(=O)[C@H](CC(C)C)NC(=O)[C@H](CC(N)=O)NC(=O)[C@H](Cc1ccccc1)NC(=O)[C@@H]1CCCN1C(=O)[C@@H](NC(=O)[C@H](CC(C)C)NC(=O)[C@@H](N)CC(=O)O)[C@@H](C)O)[C@@H](C)O)[C@@H](C)O)[C@@H](C)O)[C@@H](C)O)C(C)C)C(=O)N[C@@H](CC(=O)O)C(=O)N[C@@H](CCC(N)=O)C(=O)N[C@H](C(=O)N[C@@H](CC(N)=O)C(=O)N[C@@H](CO)C(=O)N[C@H](C(=O)N[C@@H](Cc1ccc(O)cc1)C(=O)N[C@H](C(=O)N[C@@H](CC(=O)O)C(=O)N[C@@H](CC(C)C)C(=O)N[C@@H](CCCCN)C(=O)N[C@@H](CC(C)C)C(=O)N[C@@H](CC(C)C)C(=O)O)C(C)C)[C@@H](C)O)[C@@H](C)CC", "note": "[NL63-HR2P]", "values": [{"measurement": "Inhibitory activity against β-HCoVs (MERS-CoV, SARS-CoV, OC43) S-mediated fusion", "setting": "[1]", "value": "no effective inhibitory activity"}]}
{"molecule": "CC[C@H](C)[C@H](NC(=O)[C@H](CC(=O)O)NC(=O)[C@H](CCCCN)NC(=O)[C@H](CC(C)C)NC(=O)[C@H](CC(N)=O)NC(=O)[C@@H](NC(=O)[C@H](Cc1ccc(O)cc1)NC(=O)[C@H](CO)NC(=O)[C@H](CCC(N)=O)NC(=O)[C@H](CC(N)=O)NC(=O)[C@H](CC(C)C)NC(=O)[C@@H](NC(=O)[C@H](CCCCN)NC(=O)[C@@H](NC(=O)[C@H](C)NC(=O)[C@H](CCC(=O)O)NC(=O)[C@H](CCC(N)=O)NC(=O)[C@H](CC(C)C)NC(=O)[C@H](CCCNC(=N)N)NC(=O)[C@H](CC(N)=O)NC(=O)[C@H](CCSC)NC(=O)[C@H](CCC(=O)O)NC(=O)[C@H](CC(=O)O)NC(=O)[C@H](CCC(N)=O)NC(=O)[C@H](CC(C)C)NC(=O)[C@H](CC(=O)O)NC(=O)[C@H](CC(C)C)NC(=O)[C@H](Cc1ccccc1)NC(=O)[C@@H](NC(=O)[C@@H](NC(=O)[C@H](CC(N)=O)NC(=O)[C@@H](NC(=O)[C@H](Cc1ccc(O)cc1)NC(=O)[C@H](CC(=O)O)NC(=O)[C@H](CC(C)C)NC(=O)[C@@H](N)CO)[C@@H](C)CC)C(C)C)[C@@H](C)O)[C@@H](C)CC)C(C)C)[C@@H](C)CC)C(=O)O", "note": "[OC43-HR2P]", "values": [{"measurement": "IC50", "setting": "229E S protein; Inhibitory activity of peptides, IC50, HCoV-229E cell-cell fusion assay", "value": 0.84, "unit": "µM"}, {"measurement": "IC50", "setting": "NL63 S protein; Inhibitory activity of peptides, IC50, HCoV-NL63 cell-cell fusion assay", "value": 0.94, "unit": "µM"}, {"measurement": "IC50", "setting": "OC43 S protein", "value": 0.66, "unit": "µM"}, {"measurement": "IC50", "setting": "OC43", "value": 0.93, "unit": "µM"}]}
{"molecule": "OC43-HR2P (peptide)", "values": [{"measurement": "IC50 of inhibition of 229E S-mediated cell-cell fusion", "setting": "[2]", "value": 0.84, "unit": "µM"}, {"measurement": "IC50 of inhibition of MERS-CoV S-mediated cell-cell fusion", "setting": "[3]", "value": 0.39, "unit": "µM"}, {"measurement": "IC50 of inhibition of SARS-CoV S-mediated cell-cell fusion", "setting": "[4]", "value": 0.54, "unit": "µM"}]}
